Experiments:
Assay type in all cases: in vivo
Scirpus juncoides [1] = assay: Test Example 2: herbicidal activity, application during weed generation in submerged conditions (symbol B); details: Table 23; application herbicide amount 320 g/ha; grade 0-5 by criteria of Test Example 1
Procedure, shortened: (§1)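 Flooded-soil post-emergence test: emulsion of compound, water-diluted to target rate, applied to paddy water surface at 1–2 leaf stage of mixed-sown weeds (alluvial soil, 4 cm water, 25–30° C. greenhouse); visual rating 3 weeks after application.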

rapeseed [2] = assay: Test Example 5: effect on crop by foliage application, plastic box (symbol g); details: 320 g/ha, 3 weeks after application
Procedure, shortened: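 Diluvial soil, sterilized and boxed (21 × 13 × 7 cm), received spot-sown seed covered by about 1.5 cm soil; plants were then greenhouse-grown at 25–30° C.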

[3] = test system: Echinochloa crus-galli var. crus-galli; assay: Test Example 4: herbicidal effect by soil treatment (symbol H); details: application herbicide amount 320 g/ha
Procedure, shortened: (§2)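 Seeds were sown in sterilized diluvial soil, covered with about 1.5 cm of soil, and the soil surface was sprayed with a water-diluted emulsion of the compound at a predetermined rate. Plants grew in a greenhouse at 25° C. to 30° C.; effects were scored visually 3 weeks after application.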

rapeseed [4] = assay: Test Example 4: effect on crop by soil treatment (symbol g); details: application herbicide amount 320 g/ha
Procedure, shortened: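 Sterilized diluvial soil, spot sowing, ~1.5 cm soil cover; greenhouse 25–30° C.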

Scirpus juncoides [5] = assay: Test Example 1: herbicidal activity, application before weed generation in submerged conditions (symbol B); details: application herbicide amount 320 g/ha
Procedure, shortened: (§3)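 Greenhouse growth at 25–30 °C lasted 3 weeks after treatment, when each weed was graded 0–5 by herbicidal ratio. Treatment was a diluted emulsion applied to the water surface of 4 cm-submerged alluvial soil on the sowing day.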

Apera spica-venti [6] = assay: Test Example 5: herbicidal effect by foliage application, plastic box (symbol L); details: 320 g/ha, 3 weeks after application
Procedure, shortened: (§4)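 Herbicide, formulated as an emulsion and diluted in water, is sprayed onto the aerial parts of 14-day seedlings. These were grown at 25° C. to 30° C. in sterilized diluvial soil; effects are graded after 3 weeks.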

Apera spica-venti [7] = assay: Test Example 4: herbicidal effect by soil treatment (symbol L); details: application herbicide amount 320 g/ha
Procedure, shortened: as §2

Setaria viridis = assay: Test Example 5: herbicidal effect by foliage application, plastic box (symbol G); details: 320 g/ha, 3 weeks after application
Procedure, shortened: as §4

Monochoria vaginalis [8] = assay: Test Example 2: herbicidal activity, application during weed generation in submerged conditions (symbol C); details: Table 23; application herbicide amount 320 g/ha; grade 0-5 by criteria of Test Example 1
Procedure, shortened: as §1

Veronica persica = assay: Test Example 5: herbicidal effect by foliage application, plastic box (symbol R); details: 320 g/ha, 3 weeks after application
Procedure, shortened: as §4

Digitaria ciliaris = assay: Test Example 4: herbicidal effect by soil treatment (symbol F); details: application herbicide amount 320 g/ha
Procedure, shortened: as §2

Lolium multiflorum Lam. = assay: Test Example 5: herbicidal effect by foliage application, plastic box (symbol K); details: 320 g/ha, 3 weeks after application
Procedure, shortened: as §4

Amaranthus retroflexus = assay: Test Example 5: herbicidal effect by foliage application, plastic box (symbol N); details: 320 g/ha, 3 weeks after application
Procedure, shortened: as §4

Monochoria vaginalis [9] = assay: Test Example 1: herbicidal activity, application before weed generation in submerged conditions (symbol C); details: application herbicide amount 320 g/ha
Procedure, shortened: as §3

Compound | Herbicidal effect grade, B: Scirpus juncoides (Scirpus juncoides [1]) | g: rapeseed, effect on crop (criteria of Test Example 1) (rapeseed [2]) | Herbicidal effect grade, B: Scirpus juncoides (Scirpus juncoides [5]) | L: Apera spica-venti, herbicidal effect (criteria of Test Example 1) (Apera spica-venti [6]) | G: Setaria viridis, herbicidal effect (criteria of Test Example 1) (Setaria viridis) | Herbicidal effect grade, C: Monochoria vaginalis (Monochoria vaginalis [8]) | R: Veronica persica, herbicidal effect (criteria of Test Example 1) (Veronica persica) | K: Lolium multiflorum Lam., herbicidal effect (criteria of Test Example 1) (Lolium multiflorum Lam.) | N: Amaranthus retroflexus, herbicidal effect (criteria of Test Example 1) (Amaranthus retroflexus) | Herbicidal effect grade, C: Monochoria vaginalis (Monochoria vaginalis [9]) | Herbicidal effect grade, H: Echinochloa crus-galli var. crus-galli [3] | Effect on crop grade, g: rapeseed (rapeseed [4]) | Herbicidal effect grade, L: Apera spica-venti (Apera spica-venti [7]) | Herbicidal effect grade, F: Digitaria ciliaris (Digitaria ciliaris) | further results
CON=C(C)CC1CC(OC(=O)N2CCOCC2)=C(c2c(C)cc(-c3ccc(Cl)cc3)cc2OC)C1=O (stereo not shown) [6-078, 2-(4′-chloro-3-methoxy-5-methyl-[1,1′-biphenyl]-4-yl)-4-{2-(methoxyimino)propyl}-3-oxocyclopent-1-ene-1-yl morpholine-4-carboxylate] | 2 (Herbicidal ratio of 20% or higher and lower than 40%) | 4 (Herbicidal ratio of 70% or higher and lower than 90%) | 5 (Herbicidal ratio of 90% or more (almost completely withered)) | 5 (Herbicidal ratio of 90% or more (almost completely withered)) | 5 (Herbicidal ratio of 90% or more (almost completely withered)) | 3 (Herbicidal ratio of 40% or higher and lower than 70%) | 3 (Herbicidal ratio of 40% or higher and lower than 70%) | 4 (Herbicidal ratio of 70% or higher and lower than 90%) | 0 (Herbicidal ratio of 5% or lower (almost no effect)) | 4 (Herbicidal ratio of 70% or higher and lower than 90%) |  |  |  |  | H: Echinochloa crus-galli var. crus-galli, herbicidal effect grade [3]: 0 (Herbicidal ratio of 5% or lower (almost no effect)); g: rapeseed, effect on crop grade (rapeseed [4]): 0 (Herbicidal ratio of 5% or lower (almost no effect)); L: Apera spica-venti, herbicidal effect grade (Apera spica-venti [7]): 3 (Herbicidal ratio of 40% or higher and lower than 70%); F: Digitaria ciliaris, herbicidal effect grade (Digitaria ciliaris): 5 (Herbicidal ratio of 90% or more (almost completely withered))
CON=C(C)C(=O)C1CC(O)=C(c2c(C)cc(C)cc2C)C1=O (stereo not shown) [8-002] | 0 (Herbicidal ratio of 5% or lower (almost no effect)) |  | 0 (Herbicidal ratio of 5% or lower (almost no effect)) |  |  | 0 (Herbicidal ratio of 5% or lower (almost no effect)) |  |  |  | 0 (Herbicidal ratio of 5% or lower (almost no effect)) | 2 (Herbicidal ratio of 20% or higher and lower than 40%) | 0 (Herbicidal ratio of 5% or lower (almost no effect)) | 0 (Herbicidal ratio of 5% or lower (almost no effect)) | 3 (Herbicidal ratio of 40% or higher and lower than 70%) | g: rapeseed, effect on crop grade (rapeseed [2]): 1 (Herbicidal ratio of 5% or higher and lower than 20%); L: Apera spica-venti, herbicidal effect grade (Apera spica-venti [6]): 3 (Herbicidal ratio of 40% or higher and lower than 70%); G: Setaria viridis, herbicidal effect grade (Setaria viridis): 0 (Herbicidal ratio of 5% or lower (almost no effect)); R: Veronica persica, herbicidal effect grade (Veronica persica): 0 (Herbicidal ratio of 5% or lower (almost no effect)); K: Lolium multiflorum Lam., herbicidal effect grade (Lolium multiflorum Lam.): 5 (Herbicidal ratio of 90% or more (almost completely withered)); N: Amaranthus retroflexus, herbicidal effect grade (Amaranthus retroflexus): 0 (Herbicidal ratio of 5% or lower (almost no effect))
CC(=O)CC1CC(O)=C(c2c(C)cc(OCC(F)(F)F)cc2C)C1=O (stereo not shown) [7-015] | 0 (Herbicidal ratio of 5% or lower (almost no effect)) | 5 (Herbicidal ratio of 90% or more (almost completely withered)) | 1 (Herbicidal ratio of 5% or higher and lower than 20%) | 5 (Herbicidal ratio of 90% or more (almost completely withered)) | 5 (Herbicidal ratio of 90% or more (almost completely withered)) | 0 (Herbicidal ratio of 5% or lower (almost no effect)) | 4 (Herbicidal ratio of 70% or higher and lower than 90%) | 5 (Herbicidal ratio of 90% or more (almost completely withered)) | 0 (Herbicidal ratio of 5% or lower (almost no effect)) | 2 (Herbicidal ratio of 20% or higher and lower than 40%) | 5 (Herbicidal ratio of 90% or more (almost completely withered)) | 2 (Herbicidal ratio of 20% or higher and lower than 40%) | 4 (Herbicidal ratio of 70% or higher and lower than 90%) | 5 (Herbicidal ratio of 90% or more (almost completely withered)) | 
COc1ccc(-c2cc(C)c(C3=C(O)CC(CC(C)=O)C3=O)c(C)c2)cc1 (stereo not shown) [7-006] | 0 (Herbicidal ratio of 5% or lower (almost no effect)) | 3 (Herbicidal ratio of 40% or higher and lower than 70%) | 0 (Herbicidal ratio of 5% or lower (almost no effect)) | 4 (Herbicidal ratio of 70% or higher and lower than 90%) | 5 (Herbicidal ratio of 90% or more (almost completely withered)) | 0 (Herbicidal ratio of 5% or lower (almost no effect)) | 0 (Herbicidal ratio of 5% or lower (almost no effect)) | 5 (Herbicidal ratio of 90% or more (almost completely withered)) | 0 (Herbicidal ratio of 5% or lower (almost no effect)) | 0 (Herbicidal ratio of 5% or lower (almost no effect)) | 0 (Herbicidal ratio of 5% or lower (almost no effect)) | 0 (Herbicidal ratio of 5% or lower (almost no effect)) | 0 (Herbicidal ratio of 5% or lower (almost no effect)) | 0 (Herbicidal ratio of 5% or lower (almost no effect)) | 
CC(=O)CC1CC(O)=C(c2c(C)cc(-n3cccn3)cc2C)C1=O (stereo not shown) [7-024] | 0 (Herbicidal ratio of 5% or lower (almost no effect)) | 2 (Herbicidal ratio of 20% or higher and lower than 40%) | 1 (Herbicidal ratio of 5% or higher and lower than 20%) | 1 (Herbicidal ratio of 5% or higher and lower than 20%) | 0 (Herbicidal ratio of 5% or lower (almost no effect)) | 0 (Herbicidal ratio of 5% or lower (almost no effect)) | 0 (Herbicidal ratio of 5% or lower (almost no effect)) | 3 (Herbicidal ratio of 40% or higher and lower than 70%) | 0 (Herbicidal ratio of 5% or lower (almost no effect)) | 2 (Herbicidal ratio of 20% or higher and lower than 40%) | 0 (Herbicidal ratio of 5% or lower (almost no effect)) | 0 (Herbicidal ratio of 5% or lower (almost no effect)) | 0 (Herbicidal ratio of 5% or lower (almost no effect)) | 4 (Herbicidal ratio of 70% or higher and lower than 90%) | 

— patent publication US11000033B2, “Ketone or oxime compound, and herbicide” (NISSAN CHEMICAL CORPORATION, priority 2014, dated 2021)
